Measured values reported in patent US20100204097A1, “THERAPEUTIC METHODS USING A THYMUS PEPTIDE” (IMMUNE SYSTEM KEY LTD., priority 2006, published 2010).

Key:
mouse spleenocytes = assay: Expression of VEGFA, VEGFR1 and IL-10 in mouse spleenocytes; format: cell-based; settings: increasing concentrations of T101
Excerpt: HPRT was included as a negative control.
Mouse spleenocytes were challenged without or with increasing concentrations of T101. VEGFA, VEGFR1 and IL-10 expression were compared. VEGFA is a major proangiogenic cytokine, and VEGFR1 is a receptor for VEGFA. HPRT was included as a negative control.

[1] = Blood liver enzyme levels (AST, ALP, ALT) in mice after 3 weeks of treatment; format: in vivo; settings: female Balb/C mice, 50 μg/Kg twice a day for 3 weeks, versus saline
Procedure: (§1) Two groups of 7 weeks old female Balb/C mice were injected twice a day for 3 weeks with either T101 (50 μg/Kg) (8 mice), or with saline (control) (7 mice). After 3 weeks, blood was collected from the mice and pooled, and the cholesterol level (mg/DL) was measured.
Liver enzymes levels (μg/L) were measured in the blood of the mice of Example 7. The enzymes measured were aspartate aminotransferase (AST), alkaline phosphatase (ALP) and alanine aminotransferase (ALT).

[2] = test system: human breast cancer cells; assay: Induction of apoptosis in human breast cancer cells; format: cell-based; settings: not shown
Excerpt: (§2) It may be seen in FIG. 9 that in untreated cells (time 0), a significant level of FLIP but very little caspase 8 are observed. […] It is seen that the changes in FLIP and caspase 8 are time-sensitive, with the greatest changes seen at the short time points (10′), after which their levels gradually return to baseline. Similar results were obtained with other cell lines as well.

murine spleenocytes [3] = assay: Activated caspase 3 in spleenocytes of mice injected ip with LPS and/or T101; format: in vivo; settings: Balb/c mice
Procedure: Four groups of 3 mice each (male Balb/c, 6 wks old, approx. 20 gr.) were injected ip with the following: A—saline (control); B—50 μg LPS (induces activation of monocytes); C —50 μg LPS+1 μg T101; D—1 μg T101. After 24 hours the mice were sacrificed and the spleens were removed. The spleens of the mice of each group were combined and lysed in RIPA buffer in the presence of protease inhibitors, and 30×10^6 lysed spleenocytes from each group were run on SDS-PAGE. A Western blot of the gel was performed with antibody against activated caspase 3.

human glioblastoma cells = assay: Induction of apoptosis in human glioblastoma cells; format: cell-based; settings: not shown
Excerpt: as §2

[4] = test system: murine mammary gland carcinoma cells; assay: Induction of apoptosis in murine mammary gland carcinoma cells; format: cell-based; settings: not shown
Excerpt: as §2

[5] = Blood cholesterol level in mice after 3 weeks of treatment; format: in vivo; settings: female Balb/C mice, 50 μg/Kg twice a day for 3 weeks, pooled blood, versus saline
Procedure: as §1

[6] = test system: mouse N2A neublastoma cells; assay: Induction of apoptosis in mouse N2A neublastoma cells; format: cell-based; settings: not shown
Excerpt: as §2

U937 cells [7] = assay: Western blot for the 85 kDa cleavage product of PARP in U937 cells; format: cell-based, human
Procedure: U937 cells were treated as in FIG. 1 and loaded on SDS-PAGE, except that the gel was treated with antibody against the 85 kDa cleavage product of PARP, which is produced by the cleavage of PARP by caspase 3, and is active in apoptosis.
The lanes of the gel were loaded with lysed cells which had been incubated with the following concentrations of T101: A —100 ng/ml; B —10 ng/ml; C —1 ng/ml; D —100 pg/ml; E —10 pg/ml; F —0 pg/ml (control). The bands show the location of the 85 kDa cleavage product of PARP.
U937 cells were treated as in FIG. 2 except that some of the cells were not treated with FCS, i.e. not activated. The lysed cells were loaded on SDS-PAGE, which was treated with antibody against the 85 kDa cleavage product of PARP.
The lanes of the gel were loaded with lysed cells, as follows: A—activated cells+0 ng/ml T101 (control) [the result with nonactivated cells was similar]; B—nonactivated cells+100 ng/ml T101; C—activated cells+100 ng/ml T101.

T1/ST2 receptor = assay: Streptavidin bead pull-down of FC-T1/ST2 by biotin-labeled T101, Western blot; format: binding; settings: T101-bio pre-incubated with FC-T1/ST2 45 min at 4° C., Streptavidin beads
Procedure: An antibody to the T1/ST2 receptor (FC-T1/ST2), and T101 labeled with biotin (T101-bio) were prepared. Streptavidin beads were incubated for 1 hr. at 4° C. with each of the following: A —T101-bio alone; B—Fc-T1/ST2 alone; C—FC-T1/ST2 pre-incubated with T101-bio for 45 min. at 4° C. After incubation, the beads were spun down and washed 3 times with PBS+0.1% Tween 20. The beads were then loaded on SDS-PAGE and a Western blot was performed using antibody against T1/ST2.

U937 cells [8] = assay: Western blot for phosphorylated JNK, phosphorylated MAPK p38 and IκB in U937 cells; format: cell-based, human
Procedure: The U937 cells were incubated for 30 min. with (+) or without (−) T101;
In order to determine the effect of T101 on various apoptotic signaling pathways, JNK and MAP kinase phosphorylation were measured.
(§3) In FIG. 10, it can be seen that T101 causes an increase in both JNK and MAPK phosphorylation 30 min after T101 application, while no change in the IκB protein level was detected. No change of IκB levels was detected at shorter time points as well. Therefore, it is assumed that the JNK pathway and MAP kinase pathway are activated by T101, while NF-κB remains unactivated. However, not only the caspase 8 pathway is activated upon T1/ST2 activation by T101, but also the caspase 9 dependent cascade is stimulated.

murine spleenocytes [9] = assay: Activated caspase 6 in spleenocytes of mice injected ip with LPS and/or T101; format: in vivo; settings: Balb/c mice
U937 cells [10] = assay: Time course of FLIP and caspase 8 in T1/ST2 immuno-precipitated from U937 cells; format: cell-based, human
Procedure: The samples were obtained from T1/ST2 immuno-precipitated from U937 cells at different time points after incubation with T101. The antibodies used to detect caspase 8 were against the active cleaved species;
In this example, the time course of the effect of T101 on T1/ST2 receptor-related apoptosis was investigated by following the degradation of FLIP and activation of caspase 8. U937 cells were incubated with T101, and at different time points T1/ST2 was immuno-precipitated from the cells and analyzed by Western blot for the presence of caspase 8 and FLIP.

U937 cells [11] = assay: Western blot for activated caspase 3 in FCS-activated U937 cells; format: cell-based, human; settings: U937 cells activated with 10% FCS, 18 hr, 10 pg/ml to 100 ng/ml T101
Procedure: 10^6 U937 cells, a human leukemic monoblast cell line, were incubated for 18 hr at 37° C. in RPMI buffer+10% fetal calf serum (FCS) with different concentrations of T101. The FCS causes activation of the U937 cells. The cells were then lysed in RIPA buffer in the presence of protease inhibitors, and run on SDS-PAGE. A Western blot of the gel was performed with anti-caspase 3 antibody.
The lanes of the gel were loaded with lysed cells which had been incubated with the following concentrations of T101: A,B—0 pg/ml (control); C—10 pg/ml; D—100 pg/ml; E—1 ng/ml; F—10 ng/ml; G—100 ng/ml.
Thus, T101 can be expected to cause apoptosis in activated monocytes, thereby reducing the possibility of development of a disease associated with activated monocytes, such as atherosclerosis.

U937 cells [12] = assay: Western blot for Bcl-2 and full length caspase 9 in U937 cells; format: cell-based, human
Procedure: as §3

[13] = test system: human lung carcinoma cells; assay: Induction of apoptosis in human lung carcinoma cells; format: cell-based; settings: not shown
Excerpt: as §2

[14] = 1 μg T101 without LPS, 24 hours
[15] = T1/ST2 immuno-precipitate from U937 cells, greatest change at 10′

T101: human thymus peptide, 51 amino acids: LHLWLSGEPVQSSGTKDMRSKSDSKRVSDKQLISKAVWWTFFLPSTLWERK (listed as Homo sapiens)
expression of IL-10 (mouse spleenocytes): enhanced
expression of VEGFA (mouse spleenocytes): inhibits the expression
expression of VEGFR1 (mouse spleenocytes): inhibits the expression
liver enzyme levels in the blood (AST, ALP, ALT) [1]: significant decrease
induction of apoptosis [2]: able to induce apoptosis
activated caspase 3 in spleenocytes (murine spleenocytes [3]; [14]): inhibition of activated caspase 3
activated caspase 3 in spleenocytes (murine spleenocytes [3]; 50 μg LPS+1 μg T101, 24 hours, versus control): increased amount of activated caspase 3
induction of apoptosis (human glioblastoma cells): able to induce apoptosis
induction of apoptosis [4]: able to induce apoptosis
cholesterol level in the blood [5]: significant decrease
induction of apoptosis [6]: able to induce apoptosis
cleavage of PARP, activated versus nonactivated monocytes (U937 cells [7]; U937 cells with or without FCS, 100 ng/ml T101): induced the cleavage of PARP only in the activated monocytes
amount of the 85 kDa cleavage product of PARP (U937 cells [7]; activated U937 cells, 10 pg/ml T101): significantly increased
binding to the T1/ST2 receptor (T1/ST2 receptor): binds to the T1/ST2 receptor
JNK phosphorylation (U937 cells [8]; 30 min after T101 application): increase
MAPK phosphorylation (U937 cells [8]; 30 min after T101 application): increase
IκB protein level (U937 cells [8]; 30 min and shorter time points): no change
caspase 6 in nonactivated spleenocytes (murine spleenocytes [9]; [14]): inhibiting caspase 6
caspase 6 in activated spleenocytes (murine spleenocytes [9]; 50 μg LPS+1 μg T101, 24 hours): induces caspase 6
active caspase 8 (U937 cells [10]; [15]): concomitant increase of active caspase 8
level of FLIP (U937 cells [10]; [15]): level of FLIP decreases
inactive caspase 8 (U937 cells [10]; U937 cells, not shown): decrease of the inactive caspase 8
activated caspase 3 (Western blot) (U937 cells [11]): increased activated caspase 3
Bcl-2 protein (U937 cells [12]): very pronounced degradation
full-length caspase 9 protein (U937 cells [12]): cleavage of the full-length caspase 9 protein
induction of apoptosis [13]: able to induce apoptosis
